Assay [1] has as its target human muscarinic M3 receptor (Homo sapiens, UniProt P20309). The experiment in a line: Whole cell β-lactamase reporter assay in CHO cells expressing the hM3 receptor (antagonist activity). It counts as cell-based. Conditions: 80 nM carbamyl choline, IC50 converted to Ki by Cheng-Prusoff. The procedure: Functional Assessment of Antagonist Activity Using a Whole Cell β-Lactamase Reporter Assay in CHO Cells Expressing the hM3 Receptor.
CHO (Chinese Hamster Ovary) cells recombinantly expressing the human muscarinic M3 receptor were transfected with the NFAT_β-Lac_Zeo plasmid. Cells were grown in DMEM with Glutamax-1, supplemented with 25 mM HEPES(Life Technologies 32430-027), containing 10% FCS (Foetal Calf Serum; Sigma F-7524), […] Sodium pyruvate (Sigma S-8636), NEAA (non-Essential Amino Acids; Invitrogen 11140-035) and […] Zeocin (Invitrogen R250-01).
Cells were harvested for assay when they reached 80-90% confluency using enzyme free cell Dissociation Solution (Life technologies 13151-014) incubated with the cells for 5 min at 37° C. in an atmosphere containing 5% CO2. Detached cells were collected in warmed growth media and centrifuged at 200 rpm for 10 min, washed in PBS (Phosphate Buffered Saline; Life Technologies 14190-094) and centrifuged again as just described. The cells were re-suspended at 2×10^5 cells/ml in growth medium (composition as described above). 20 μl of this cell suspension was added to each well of a 384 well black clear bottomed plate (Greiner Bio One 781091-PFI). The assay buffer used was PBS supplemented with 0.05% Pluronic F-127 (Sigma 9003-11-6) and 2.5% DMSO. Muscarinic M3 receptor signalling was stimulated using 80 nM carbamyl choline (Aldrich N240-9) incubated with the cells for 4 h at 37° C./5% CO2 and monitored at the end of the incubation period using a Tecan SpectraFluor+plate reader (λ−excitation 405 nm, emission 450 nm and 503 nm). Compounds under test were added to the assay at the beginning of the 4 h incubation period and compound activity measured as the concentration dependent inhibition of the carbamyl choline induced signal. Inhibition curves were plotted and IC50 values generated using a 4-parameter sigmoid fit and converted to Ki values using the Cheng-Prusoff correction and the KD value for carbamyl choline in the assay.

For assay [2], the target named is human adrenergic B2 receptor (Homo sapiens, UniProt P07550). The experiment in a line: Whole cell luciferase reporter assay in CHO cells expressing the hB2 receptor (agonist potency). In kind it is cell-based. The following applies: 4 h incubation, read-out: EC50 - beta2. The procedure:
Functional Assessment of Agonist Potency and Efficacy Using a Whole Cell Luciferase Reporter Assay in CHO Cells Expressing the hB2 Receptor.
CHO (Chinese Hamster Ovary) cells recombinantly expressing the human adrenergic B2 receptor and transfected with a luciferase enzyme reporter gene were maintained in growth media composed of F12:DMEM (Sigma D6421) containing 10% Foetal Bovine Serum (FBS: Sigma F03921) 10 μg/ml puromycin (Sigma N277698), 0.5 mg/ml Geneticin G418 (Sigma G7034) and 2 mM L-glutamine (Sigma G7513). The cells were kept in sterile conditions at 37° C., in an atmosphere containing 5% CO2.
hB2 Luciferase Assay Protocol
Cells were harvested for assay when they reached 80-90% confluency using enzyme free cell Dissociation Solution (Life technologies 13151-014) incubated with the cells for 5 min at 37° C. in an atmosphere containing 5% CO2. Detached cells were collected in warmed growth media (composition described above), and re-suspended in assay media (F12:DMEM (Sigma D6421) containing 1% Foetal Bovine Serum (FBS: Sigma F03921), 10 μg/ml puromycin (Sigma N277698), 0.5 mg/ml Geneticin G418 (Sigma G7034) and 2 mM L-glutamine (Sigma G7513))to give a viable cell concentration of 1×10^6 cells/ml. 10 ul of this suspension was added to each well of a tissue culture treated low volume 384 well plate (Greiner788073) and the plate incubated in an atmosphere containing 5% CO2 at 37° C. for 2 h. Concentration ranges of test compounds were prepared in phosphate Buffered Saline containing 0.05% pluronic-F127 (Sigma P2443) and 2.5% DMSO. 2 μl of each test concentration were added to the appropriate 384 plate well and returned to the incubator for a further 4 h. At the end of the incubation period 4 μl of Steady-Glo reagent (Steady-Glo Luciferase assay system (Promega E2520) was added to each well and the plate read immediately in a Leadseeker Plate reader (Amersham Bioscience) using a 660 nm filter. Concentration effect curves were plotted and EC50 values generated using a 4-parameter sigmoid fit using an in-house data analysis programme. Isoprenaline was run in every assay as a reference standard.
Background: A reporter such as luciferase makes a cellular process visible.

Where a name gives a salt, the structure may show the parent alone.

Sequence of human adrenergic B2 receptor (P07550 whole entry): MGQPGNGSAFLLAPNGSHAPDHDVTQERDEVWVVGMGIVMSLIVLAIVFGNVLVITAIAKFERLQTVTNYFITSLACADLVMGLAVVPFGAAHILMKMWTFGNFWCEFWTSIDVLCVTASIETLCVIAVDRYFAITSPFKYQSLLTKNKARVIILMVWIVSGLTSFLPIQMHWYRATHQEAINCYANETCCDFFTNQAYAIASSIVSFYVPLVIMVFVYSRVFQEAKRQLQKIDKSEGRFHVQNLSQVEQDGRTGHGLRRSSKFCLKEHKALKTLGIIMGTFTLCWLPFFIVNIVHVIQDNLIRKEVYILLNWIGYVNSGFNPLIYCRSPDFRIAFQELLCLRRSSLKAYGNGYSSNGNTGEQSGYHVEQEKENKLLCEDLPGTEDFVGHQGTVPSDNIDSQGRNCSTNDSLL
Sequence of human muscarinic M3 receptor (P20309 whole entry): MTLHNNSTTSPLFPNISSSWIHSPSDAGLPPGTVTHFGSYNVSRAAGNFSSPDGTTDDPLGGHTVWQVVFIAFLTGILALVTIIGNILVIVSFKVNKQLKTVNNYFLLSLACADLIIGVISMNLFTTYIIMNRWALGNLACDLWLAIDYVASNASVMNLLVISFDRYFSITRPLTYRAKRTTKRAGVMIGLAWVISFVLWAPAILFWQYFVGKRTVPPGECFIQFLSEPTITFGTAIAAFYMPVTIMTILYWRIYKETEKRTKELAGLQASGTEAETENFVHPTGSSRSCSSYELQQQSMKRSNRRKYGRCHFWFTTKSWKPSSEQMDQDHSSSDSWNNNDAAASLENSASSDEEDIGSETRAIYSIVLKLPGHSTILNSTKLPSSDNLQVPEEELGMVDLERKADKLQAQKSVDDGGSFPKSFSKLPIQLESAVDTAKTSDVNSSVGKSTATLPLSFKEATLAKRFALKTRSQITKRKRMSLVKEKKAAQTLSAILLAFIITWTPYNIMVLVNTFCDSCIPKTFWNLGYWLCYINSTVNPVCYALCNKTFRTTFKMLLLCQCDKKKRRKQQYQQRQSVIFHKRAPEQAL

The Ki is a dissociation constant, usually derived from enzyme kinetics or from competition with a known ligand. For orientation: EC50 means the concentration at which the effect is half-maximal. As to `CC(C)N(CC[C@H](c1ccccc1)c1cc(CCOc2ccc(CCNC[C@H](O)c3cc(O)cc(O)c3)cc2)ccc1O)C(C)C` [Example 12, 5-[(1R)-2-({2-[4-(2-{3-[(1R)-3-(diisopropylamino)-1-phenylpropyl]-4-hydroxyphenyl}ethoxy)phenyl]ethyl}amino)-1-hydroxyethyl]benzene-1,3-diol], the affinity in assay [1], expressed as Ki, was 0.26 nM. Also, the EC50 in assay [2] was determined as 13.8 nM. `CC(C)N(CC[C@H](c1ccccc1)c1cc(CCOc2ccc(CCNC[C@H](O)c3ccc(O)c(NS(C)(=O)=O)c3)cc2)ccc1O)C(C)C` [Example 19, N-{5-[(1R)-2-({2-[4-(2-{3-[(1R)-3-(diisopropylamino)-1-phenylpropyl]-4-hydroxyphenyl}ethoxy)phenyl]ethyl}amino)-1-hydroxyethyl]-2-hydroxyphenyl}methanesulfonamide succinate salt]: the inhibitory constant (Ki) in assay [1] came out at 0.3 nM. Moreover, the EC50 in assay [2] was found to be 0.2 nM. Regarding `CC(C)N(CC[C@H](c1ccccc1)c1cc(CCCCOc2ccc(CCNC[C@H](O)c3ccc(O)c(CO)c3)cc2)ccc1O)C(C)C` [Example 18, 2-[(1R)-3-(diisopropylamino)-1-phenylpropyl]-4-(4-{4-[2-({(2R)-2-hydroxy-2-[4-hydroxy-3-(hydroxymethyl)phenyl]ethyl}amino)ethyl]phenoxy}butyl)phenol], the EC50 in assay [2] turned out to be 0.22 nM. As to `CC(C)N(CC[C@H](c1ccccc1)c1cc(CCCCCCCCCCNC[C@H](O)c2ccc(O)c(NS(C)(=O)=O)c2)ccc1O)C(C)C` [Example 1, N-(5-{(1R)-2-[(10-{3-[(1R)-3-(diisopropylamino)-1-phenylpropyl]-4-hydroxyphenyl}decyl)amino]-1-hydroxyethyl}-2-hydroxyphenyl)methanesulfonamide], the affinity in assay [1], expressed as Ki, was 3.4 nM. In assay [2], the 50% effective concentration (EC50) came out at 0.88 nM.

In the case of `CC(C)N(CC[C@H](c1ccccc1)c1cc(CCOc2cccc(CCNC[C@H](O)c3ccc(O)c(NS(C)(=O)=O)c3)c2)ccc1O)C(C)C` [Example 10, N-{5-[(1R)-2-({2-[3-(2-{3-[(1R)-3-(diisopropylamino)-1-phenylpropyl]-4-hydroxyphenyl}ethoxy)phenyl]ethyl}amino)-1-hydroxyethyl]-2-hydroxyphenyl}methanesulfonamide], the inhibition constant (Ki) in assay [1] was determined as 1.1 nM. Further, the concentration for a half-maximal effect (EC50) in assay [2] came out at 0.26 nM. `CC(C)N(CC[C@H](c1ccccc1)c1cc(CCOc2ccc(CCNC[C@H](O)c3ccc(O)c(NC=O)c3)cc2)ccc1O)C(C)C` [Example 13, N-{5-[(1R)-2-({2-[4-(2-{3-[(1R)-3-(diisopropylamino)-1-phenylpropyl]-4-hydroxyphenyl}ethoxy)phenyl]ethyl}amino)-1-hydroxyethyl]-2-hydroxyphenyl}formamide] had an inhibition constant Ki in assay [1] of 0.38 nM. The concentration giving a half-maximal response (EC50) in assay [2] stood at 0.078 nM. For `CC(C)N(CC[C@H](c1ccccc1)c1cc(CCOc2ccc(CCNC[C@H](O)c3ccc(O)c(CO)c3)cc2)ccc1O)C(C)C` [Example 15, 2-[(1R)-3-(diisopropylamino)-1-phenylpropyl]-4-(2-{4-[2-({(2R)-2-hydroxy-2-[4-hydroxy-3-(hydroxymethyl)phenyl]ethyl}amino)ethyl]phenoxy}ethyl)phenol], in that order: 0.06 nM and 0.25 nM. Turning to `CC(C)N(CC[C@H](c1ccccc1)c1cc(CCOc2ccc(CC(C)(C)NC[C@H](O)c3ccc(O)c4[nH]c(=O)ccc34)cc2)ccc1O)C(C)C` [Example 20, 5-[(1R)-2-({2-[4-(2-{3-[(1R)-3-(diisopropylamino)-1-phenylpropyl]-4-hydroxyphenyl}ethoxy)phenyl]-11-dimethylethyl}amino)-1-hydroxyethyl]-8-hydroxyquinolin-2(1H)-one], the inhibition constant (Ki) in assay [1] amounted to 0.39 nM. Moreover, the EC50 in assay [2] was 0.028 nM. On the same counts, the results for `CC(C)N(CC[C@H](c1ccccc1)c1cc(CCCCCCCCNC[C@H](O)c2ccc(O)c(NS(C)(=O)=O)c2)ccc1O)C(C)C` [Example 16, N-(5-{(1R)-2-[(8-{3-[(1R)-3-(diisopropylamino)-1-phenylpropyl]-4-hydroxyphenyl}octyl)amino]-1-hydroxyethyl}-2-hydroxyphenyl)methanesulfonamide] are 2 nM and 1.3 nM. On to `CC(C)N(CC[C@H](c1ccccc1)c1cc(CCCCOc2ccc(CCNC[C@H](O)c3ccc(O)c(NS(C)(=O)=O)c3)cc2)ccc1O)C(C)C` [Example 3, N-{5-[(1R)-2-({2-[4-(4-{3-[(1R)-3-(Diisopropylamino)-1-phenylpropyl]-4-hydroxyphenyl}butoxy)phenyl]ethyl}amino)-1-hydroxyethyl]-2-hydroxyphenyl}methanesulfonamide], for which, in assay [1], the affinity corresponds to a Ki of 1.4 nM. Further, the EC50 in assay [2] was determined as 0.14 nM.

Compound `CC(C)N(CC[C@H](c1ccccc1)c1cc(CCCCOCCCCCCNC[C@H](O)c2ccc(O)c(NS(C)(=O)=O)c2)ccc1O)C(C)C` [Example 6, N-{5-[(1R)-2-{[6-(4-{3-[(1R)-3-(Diisopropylamino)-1-phenylpropyl]-4-hydroxyphenyl}butoxy)hexyl]amino}-1-hydroxyethyl]-2-hydroxyphenyl}methanesulfonamide] came in with an inhibition constant Ki in assay [1] of 2.4 nM. Besides, the EC50 in assay [2] worked out at 0.19 nM. For `CC(C)N(CC[C@H](c1ccccc1)c1cc(OCCCCCCCNC[C@H](O)c2ccc(O)c(NS(C)(=O)=O)c2)ccc1O)C(C)C` [Example 4, N-(5-{(1R)-2-[(7-{3-[(1R)-3-(diisopropylamino)-1-phenylpropyl]-4-hydroxyphenoxy}heptyl)amino]-1-hydroxyethyl}-2-hydroxyphenyl)methanesulfonamide], in that order: 0.28 nM and 1.3 nM. In assay [1], `CC(C)N(CC[C@H](c1ccccc1)c1cc(CCCCOc2ccc(CCNC[C@H](O)c3ccc(O)c(NC=O)c3)cc2)ccc1O)C(C)C` [Example 7, N-{5-[(1R)-2-({2-[4-(4-{3-[(1R)-3-(diisopropylamino)-1-phenylpropyl]-4-hydroxyphenyl}butoxy)phenyl]ethyl}amino)-1-hydroxyethyl]-2-hydroxyphenyl}formamide] yielded an inhibitory constant (Ki) of 2.1 nM. Besides, the EC50 in assay [2] came to 0.049 nM. With `CC(C)N(CC[C@H](c1ccccc1)c1cc(CCCCOc2ccc(CCNC[C@H](O)c3ccc(O)c4[nH]c(=O)ccc34)cc2)ccc1O)C(C)C` [Example 8, 5-[(1R)-2-({2-[4-(4-{3-[(1R)-3-(diisopropylamino)-1-phenylpropyl]-4-hydroxyphenyl}butoxy)phenyl]ethyl}amino)-1-hydroxyethyl]-8-hydroxyquinolin-2(1H)-one], the EC50 in assay [2] amounted to 0.035 nM.

With `CC(C)N(CC[C@H](c1ccccc1)c1cc(CCCCCOc2ccc(CCNC[C@H](O)c3ccc(O)c(NS(C)(=O)=O)c3)cc2)ccc1O)C(C)C` [Example 17, N-(5-{(1R)-2-[(2-{4-[(5-{3-[(1R)-3-(diisopropylamino)-1-phenylpropyl]-4-hydroxyphenyl}pentyl)oxy]phenyl}ethyl)amino]-1-hydroxyethyl}-2-hydroxyphenyl)methanesulfonamide], the affinity in assay [1], expressed as Ki, was 3 nM. The EC50 in assay [2] is 0.57 nM. For `CC(C)N(CC[C@H](c1ccccc1)c1cc(CCCOc2ccc(CCNC[C@H](O)c3ccc(O)c(NS(C)(=O)=O)c3)cc2)ccc1O)C(C)C` [Example 2, N-{5-[(1R)-2-({2-[4-(3-{3-[(1R)-3-(diisopropylamino)-1-phenylpropyl]-4-hydroxyphenyl}propoxy)phenyl]ethyl}amino)-1-hydroxyethyl]-2-hydroxyphenyl}methanesulfonamide], in that order: 1.1 nM and 0.32 nM.

Values taken from patent US7612084B2, “Amine derivatives for the treatment of asthma and COPD” (Pfizer Inc, priority 2006, dated 2009).
